What was measured:
[1] = molecular target: T1, GlyT1 transporter (Rattus norvegicus, UniProt P28572); test: Autoradiographic studies in rat brain sections; type: binding; settings: for distribution of the binding sites in rat brain sections: radiotracer 1 nM, 60 min, 37° C., high densities in thalamus, brainstem, pons, medulla oblungata, cerebellum, lower in striatum, cortex, hippocampus
T1 construct: Ten μm-thick sagittal sections were cut in a Cryostat and thaw-mounted on adhesion glass slides; from tissue; host or cells: rat brain, sagittal sections (male Wistar rats)
T1 sequence (P28572 1-638): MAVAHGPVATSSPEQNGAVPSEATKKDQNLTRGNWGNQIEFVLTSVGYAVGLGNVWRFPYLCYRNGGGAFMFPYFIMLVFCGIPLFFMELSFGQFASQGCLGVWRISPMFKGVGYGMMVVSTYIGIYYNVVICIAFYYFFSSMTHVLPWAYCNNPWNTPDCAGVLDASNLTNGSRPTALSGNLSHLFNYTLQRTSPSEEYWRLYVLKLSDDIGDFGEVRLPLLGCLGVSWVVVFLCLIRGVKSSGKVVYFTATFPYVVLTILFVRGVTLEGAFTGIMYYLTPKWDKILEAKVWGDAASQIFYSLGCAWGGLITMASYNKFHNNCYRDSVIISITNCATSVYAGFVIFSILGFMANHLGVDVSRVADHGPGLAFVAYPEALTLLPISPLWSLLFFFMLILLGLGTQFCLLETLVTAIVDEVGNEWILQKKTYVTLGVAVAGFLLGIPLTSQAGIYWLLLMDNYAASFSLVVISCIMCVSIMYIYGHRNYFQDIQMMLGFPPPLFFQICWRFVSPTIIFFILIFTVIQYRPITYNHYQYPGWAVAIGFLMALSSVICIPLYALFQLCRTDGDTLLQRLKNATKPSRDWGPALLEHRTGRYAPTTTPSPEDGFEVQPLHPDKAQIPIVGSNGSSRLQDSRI
From the text: Autoradiographic Studies in Rat Brain
The distribution of the binding sites of [^3H][5-Methanesulfonyl-2-((S)-2,2,2-trifluoro-1-methyl-ethoxy)-phenyl]-[5-(tetrahydro-pyran-4-yl)-1,3-dihydro-isoindol-2-yl]-methanone and [^3H][2-Isopropoxy-5-methanesulfonyl-phenyl)-[5-(tetrahydro-pyran-4-yl)-1,3-dihydro-isoindol-2-yl]-methanone] was investigated in the rat brain.
Male Wistar rats were used for these experiments. Rats were sacrificed; their brains were rapidly removed, frozen in dry ice powder. Ten μm-thick sagittal sections were cut in a Cryostat and thaw-mounted on adhesion glass slides. Brain sections were first incubated for 10 min. in Ringer buffer (NaCl 120 mM, KCl 5 mM, CaCl2 2 mM, MgCl2 1 mM, Tris-HCl 50 mM pH 7.4) at 37° C. and then for 60 min. in Ringer buffer at 37° C. containing either [^3H]5-Methanesulfonyl-2-((S)-2,2,2-trifluoro-1-methyl-ethoxy)-phenyl]-[5-(tetrahydro-pyran-4-yl)-1,3-dihydro-isoindol-2-yl-methanone or [^3H]-[2-Isopropoxy-5-methanesulfonyl-phenyl)-[5-(tetrahydro-pyran-4-yl)-1,3-dihydro-isoindol-2-yl]-methanone] at concentration 1 nM. For the evaluation of the non-specific-binding (NSB) of the radiotracer an additional group of sections was incubated with Ringer buffer containing the radiotracer and the reference GlyT1 inhibitor Org 24598 at the concentration 10 μM (60 in at 37° C.). At the end of the incubation, sections were rinsed 2×5 min. and 1×15 min. in ice-cold (4° C.) Ringer buffer and then rapidly dipped three times in distilled water at 4° C. Slide-mounted brain sections were dried under a flow of cold air and exposed together with [^3H]-microscale to a Fuji Imaging plate for 5 days. […] The total amount of radiotracer bound to the brain areas of interest (TB) were measured using the MCID image analysis program and expressed as fmol of bound radiotracer/mg of protein. The amount of [^3H]5-Methanesulfonyl-2-((S)-2,2,2-trifluoro-1-methyl-ethoxy)-phenyl]-[5-(tetrahydro-pyran-4-yl)-1,3-dihydro-isoindol-2-yl]-methanone specifically bound to the GlyT1 carrier (SB) was calculated according to the formula: SB=TB−NSB.

[2] = test system: glycine transporter 1 (GlyT1); test: In vivo PET imaging in the baboon; design: species or system baboon (papio anubis); settings: intravenous 1 minute bolus, PET 0 to 90 minutes
Experimental: 1) PET imaging with [^11C-][2-Isopropoxy-5-methanesulfonyl-phenyl)-[5-(tetrahydro-pyran-4-yl)-1,3-dihydro-isoindol-2-yl]-methanone] and [^11C]-5-Methanesulfonyl-2-((S)-2,2,2-trifluoro-1-methyl-ethoxy)-phenyl]-[5-(tetrahydro-pyran-4-yl)-1,3-dihydro-isoindol-2-yl]-methanone
(§1) The experiments described below were carried out in male baboons (papio anubis). Animals were fasted for 12 hours prior to the PET study. Baboons were initially sedated intramuscularly with Ketamine hydrochloride with restraint dosages of 5-7 mg/kg to achieve a light plane of anesthesia and then maintained on continuous Propofol intravenous infusion @ […] (DIPRIVAN® Injectable Emulsion). Circulatory volume was maintained by infusion of isotonic saline. A femoral arterial catheter was inserted for blood sampling. Physiological vital signs including heart rate, ECG, blood pressure (Spacelabs Monitor, Issaquah, Wash., USA) and oxygen saturation (Nellcor OxiMax® N-600™ Pulse Oximeter, Pleasanton, Calif., USA) were continuously monitored throughout the study. The animal was positioned in an ECAT HRRT® brain PET scanner (High Resolution Research Tomograph, CPS Innovations, Inc., Knoxville, Tenn.). The head of the animal was fitted with a thermoplastic mask that was attached to a head holder for reproducible fixation. […]

[3] = molecular target: T2, GlyT1 transporter (Mus musculus, UniProt P28571); test: GlyT1 transporter inhibition in vitro (test method of WO2006/082001); type: cell-based; settings: unlabelled compounds
T2 sequence (P28571 1-651 isoform P28571-2): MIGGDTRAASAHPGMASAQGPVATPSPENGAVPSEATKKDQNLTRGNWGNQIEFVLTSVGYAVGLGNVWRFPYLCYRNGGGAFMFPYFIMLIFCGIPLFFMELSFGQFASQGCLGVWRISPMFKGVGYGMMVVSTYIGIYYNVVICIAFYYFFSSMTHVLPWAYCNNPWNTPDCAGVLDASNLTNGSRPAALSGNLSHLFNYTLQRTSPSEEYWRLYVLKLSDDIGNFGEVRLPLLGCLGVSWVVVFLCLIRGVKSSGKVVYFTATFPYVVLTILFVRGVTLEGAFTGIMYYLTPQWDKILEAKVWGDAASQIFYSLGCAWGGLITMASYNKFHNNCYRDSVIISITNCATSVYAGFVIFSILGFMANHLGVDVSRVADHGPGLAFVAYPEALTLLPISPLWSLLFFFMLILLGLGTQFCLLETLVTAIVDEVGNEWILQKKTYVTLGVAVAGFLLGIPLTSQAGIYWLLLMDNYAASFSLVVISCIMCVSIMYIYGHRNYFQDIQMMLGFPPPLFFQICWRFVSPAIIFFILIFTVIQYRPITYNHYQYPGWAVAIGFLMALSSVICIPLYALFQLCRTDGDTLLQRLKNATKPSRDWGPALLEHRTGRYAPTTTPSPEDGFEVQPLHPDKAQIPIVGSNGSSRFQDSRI
From the text: The test method is described in WO2006/082001.

[4] = Preliminary pharmacokinetic experiments and modeling (blocker infusion); type: in vivo, baboon; settings: intravenous infusion 0.2 mg/kg then 0.5 mg/kg
Experimental: Each animal received two sequential administrations of the radiotracer on the same day. The first administration of radiotracer was used to determine radiotracer baseline uptake. Following the baseline scan, the baboon received an intravenous administration of unlabeled [5-methanesulfonyl-2-((S)-2,2,2-trifluoro-1-methyl-ethoxy)-phenyl]-[5-(tetrahydro-pyran-4-yl)-1,3-dihydro-isoindol-2-yl]-methanone (blocker). The blocker infusion started 20 min before (the second) radiotracer injection. The blocker was first infused at dose=0.2 mg/kg. After 10 min, the flow rate was changed to deliver 0.5 mg/kg for the remainder 100 min of the study.

[5] = test system: GlyT1 transporter; test: PET imaging with pharmacological challenges (blocking of radiotracer uptake); type: in vivo, baboon (papio anubis); settings: intravenous infusion 0.2 mg/kg, after 10 min 0.5 mg/kg for remainder 100 min; started 20 min before radiotracer
Experimental: as §1, with “fixation. A 6 min transmission scan with a 1 mCi Cs-137 point source was initially done for attenuation correction.” for “fixation.”

[^3H-methyl]-(2-Isopropoxy-5-methanesulfonyl-phenyl)-[5-(tetrahydro-pyran-4-yl)-1,3-dihydro-isoindol-2-yl]-methanone [Example 3]
distribution of the binding sites in rat brain sections [1]: corresponded to the known distribution of the GlyT1 transporter

[3H-methyl]-[5-Methanesulfonyl-2-((S)-2,2,2-trifluoro-1-methyl-ethoxy)-phenyl]-[5-(tetrahydro-pyran-4-yl)-1,3-dihydro-isoindol-2-yl]-methanone [Example 1]
distribution of the binding sites in rat brain sections [1]: corresponded to the known distribution of the GlyT1 transporter

C[C@H](Oc1ccc(S([11CH3])(=O)=O)cc1C(=O)N1Cc2ccc(C3CCOCC3)cc2C1)C(F)(F)F [Example 2, [^11C-methyl]-[5-Methanesulfonyl-2-((S)-2,2,2-trifluoro-1-methyl-ethoxy)-phenyl]-[5-(tetrahydro-pyran-4-yl)-1,3-dihydro-isoindol-2-yl]-methanone]
brain uptake of radiotracer [2]: rapidly taken up in multiple brain areas

CC(C)Oc1ccc(S(C)(=O)=O)cc1C(=O)N1Cc2ccc(C3CCOCC3)cc2C1 [(2-isopropoxy-5-methanesulfonyl-phenyl)-[5-(tetrahydro-pyran-4-yl)-1,3-dihydro-isoindol-2-yl]-methanone]
IC50 [3]: 14 nM

CN(CC[C@@H](Oc1ccc(C(F)(F)F)cc1)c1ccccc1)CC(=O)O [Org 24598]
effect of co-incubation on binding of both [3H] radiotracers to rat brain sections ([1]; high concentrations of inhibitor (Org 24598 10 μM), radiotracers 1 nM): completely abolished binding

C[C@H](Oc1ccc(S(C)(=O)=O)cc1C(=O)N1Cc2ccc(C3CCOCC3)cc2C1)C(F)(F)F [[5-methanesulfonyl-2-((S)-2,2,2-trifluoro-1-methyl-ethoxy)-phenyl]-[5-(tetrahydro-pyran-4-yl)-1,3-dihydro-isoindol-2-yl]-methanone]
plasma levels during the PET scan time interval [4]: constant plasma levels
IC50 [3]: 28 nM
effect of pretreatment with cold blocker on specific uptake of both [11C] radiotracers in brain [5]: completely blocked the specific uptake

CC(C)Oc1ccc(S([11CH3])(=O)=O)cc1C(=O)N1Cc2ccc(C3CCOCC3)cc2C1 [Example 4, [^11C-methyl]-(2-Isopropoxy-5-methanesulfonyl-phenyl)-[5-(tetrahydro-pyran-4-yl)-1,3-dihydro-isoindol-2-yl]-methanone]
brain uptake of radiotracer [2]: rapidly taken up in multiple brain areas
